From ChEMBL document CHEMBL1817643, “Biochemical characterization of a novel type-II VEGFR2 kinase inhibitor: comparison of binding to non-phosphorylated and phosphorylated VEGFR2” (Bioorg Med Chem, 2011)

Experiments:
[1] = target: T1, Vascular endothelial growth factor receptor 2 (Homo sapiens, UniProt P35968)
[2] = target: T1, Vascular endothelial growth factor receptor 2; remark: listed apart in the source
Description: Inhibition of human N-terminal His-tagged non-phosphorylated VEGFR2 assessed as dissociation half life after 60 mins by ligand displacement based enzyme-inhibitor dilution assay

[3] = target: T1, Vascular endothelial growth factor receptor 2; remark: listed apart in the source
[4] = target: T1, Vascular endothelial growth factor receptor 2; remark: listed apart in the source
Description: Inhibition of human N-terminal His-tagged phosphorylated VEGFR2 assessed as dissociation half life after 60 mins by ligand displacement based enzyme-inhibitor dilution assay

[5] = target: T1, Vascular endothelial growth factor receptor 2; assay: Inhibition of human N-terminal His-tagged non-phosphorylated VEGFR2 in presence of ATP measured without preincubation by AlphaScreen analysis
[6] = target: T1, Vascular endothelial growth factor receptor 2; assay: Inhibition of human N-terminal His-tagged non-phosphorylated VEGFR2 preincubated for 120 mins in presence of ATP by AlphaScreen analysis
[7] = target: T1, Vascular endothelial growth factor receptor 2; assay: Inhibition of human N-terminal His-tagged phosphorylated VEGFR2 in presence of ATP measured without preincubation by AlphaScreen analysis
[8] = target: T1, Vascular endothelial growth factor receptor 2; assay: Inhibition of human N-terminal His-tagged phosphorylated VEGFR2 preincubated for 120 mins in presence of ATP by AlphaScreen analysis
[9] = target: T1, Vascular endothelial growth factor receptor 2; assay: Inhibition of human N-terminal His-tagged non-phosphorylated VEGFR2 after 10 mins by Global fit analysis
[10] = target: T1, Vascular endothelial growth factor receptor 2; assay: Inhibition of human N-terminal His-tagged non-phosphorylated VEGFR2 after 60 mins by activity based 100 fold dilution assay
[11] = target: T1, Vascular endothelial growth factor receptor 2; assay: Inhibition of human N-terminal His-tagged non-phosphorylated VEGFR2 after 60 mins by ligand displacement based enzyme-inhibitor dilution assay
[12] = target: T1, Vascular endothelial growth factor receptor 2; assay: Binding affinity to human N-terminal His-tagged non-phosphorylated VEGFR2 by surface plasmon resonance analysis
[13] = target: T1, Vascular endothelial growth factor receptor 2; remark: listed apart in the source
Description: Inhibition of human N-terminal His-tagged non-phosphorylated VEGFR2 assessed as dissociation half life

[14] = target: T1, Vascular endothelial growth factor receptor 2; remark: listed apart in the source
Description: Binding affinity to human N-terminal His-tagged non-phosphorylated VEGFR2 assessed as association constant by surface plasmon resonance analysis

[15] = target: T1, Vascular endothelial growth factor receptor 2; assay: Binding affinity to human N-terminal His-tagged non-phosphorylated VEGFR2 assessed as dissociation rate constant by surface plasmon resonance analysis

T1 sequence (P35968 whole entry): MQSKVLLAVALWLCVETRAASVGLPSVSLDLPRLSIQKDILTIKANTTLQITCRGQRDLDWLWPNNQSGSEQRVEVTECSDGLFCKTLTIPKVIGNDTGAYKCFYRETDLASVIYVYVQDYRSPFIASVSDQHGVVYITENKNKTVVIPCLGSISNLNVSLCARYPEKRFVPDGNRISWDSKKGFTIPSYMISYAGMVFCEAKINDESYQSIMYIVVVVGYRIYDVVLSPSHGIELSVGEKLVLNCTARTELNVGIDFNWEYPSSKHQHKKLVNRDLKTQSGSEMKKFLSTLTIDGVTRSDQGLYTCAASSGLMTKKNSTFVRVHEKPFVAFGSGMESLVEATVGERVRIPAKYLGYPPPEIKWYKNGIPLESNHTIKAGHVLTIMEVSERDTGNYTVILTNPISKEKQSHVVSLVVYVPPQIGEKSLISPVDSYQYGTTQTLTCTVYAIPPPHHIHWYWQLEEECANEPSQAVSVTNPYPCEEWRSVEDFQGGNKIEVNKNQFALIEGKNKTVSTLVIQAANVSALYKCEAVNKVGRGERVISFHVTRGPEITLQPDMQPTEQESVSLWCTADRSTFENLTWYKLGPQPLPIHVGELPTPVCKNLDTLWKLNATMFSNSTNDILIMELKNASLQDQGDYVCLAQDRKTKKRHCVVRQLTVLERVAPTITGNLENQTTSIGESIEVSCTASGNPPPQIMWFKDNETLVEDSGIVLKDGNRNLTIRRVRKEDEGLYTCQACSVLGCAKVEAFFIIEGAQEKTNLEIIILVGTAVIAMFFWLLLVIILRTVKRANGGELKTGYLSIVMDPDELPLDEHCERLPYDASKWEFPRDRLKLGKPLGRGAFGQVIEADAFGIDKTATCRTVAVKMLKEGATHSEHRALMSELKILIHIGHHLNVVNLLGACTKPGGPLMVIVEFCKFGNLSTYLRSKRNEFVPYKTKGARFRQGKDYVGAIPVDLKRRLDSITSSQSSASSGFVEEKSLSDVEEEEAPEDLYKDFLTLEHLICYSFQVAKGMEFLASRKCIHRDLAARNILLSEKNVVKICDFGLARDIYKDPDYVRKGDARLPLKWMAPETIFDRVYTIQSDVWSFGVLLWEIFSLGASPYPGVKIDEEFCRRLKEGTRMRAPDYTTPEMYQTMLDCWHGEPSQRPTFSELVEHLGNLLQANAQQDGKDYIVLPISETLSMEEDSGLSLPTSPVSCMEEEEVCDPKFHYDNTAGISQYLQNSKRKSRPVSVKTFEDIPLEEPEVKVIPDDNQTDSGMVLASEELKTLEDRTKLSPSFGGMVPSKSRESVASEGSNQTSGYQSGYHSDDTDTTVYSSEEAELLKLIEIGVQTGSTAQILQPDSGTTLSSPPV

Row | Compound | T1/2 [1] [min] | T1/2 [2] [min] | T1/2 [3] [min] | T1/2 [4] [min] | IC50 [5] [nM] | IC50 [6] [nM] | IC50 [7] [nM] | Ki [7] [nM] | IC50 [8] [nM] | Ki [9] [nM] | Ki [10] [nM] | Ki [11] [nM] | Kd [12] [nM] | T1/2 [13] [min] | Ka [14] [×10⁵ /M/s] | koff [15] [s⁻¹]
1 | CN[C@@H]1C[C@H]2O[C@@](C)([C@@H]1OC)n1c3ccccc3c3c4c(c5c6ccccc6n2c5c31)C(=O)NC4 | < 5 | < 5 | < 5 | < 5 |  |  |  |  |  |  |  |  |  |  |  | 
2 | Cn1ccc2ncnc(Oc3ccc(NC(=O)Nc4cccc(C(F)(F)F)c4)c(F)c3)c21 | 260 | 130 | < 5 | < 5 | 4.7 | 0.033 | 46 | 23 | 14 | 4.6 | 0.024 | 0.044 | 19 | 1.3 | 1.6 | 0.0031
